Source: the NIST ThermoML archive (doi:10.1016/j.tca.2014.09.011)
Several values for one entry are separate records, joined by “and”; a condition that tells them apart may be missing. Equal values may be shown once.

Details: Liquid, Rate of evaporation

CCCCO [butan-1-ol]
Details	vapor or sublimation pressure
301.02 K	1.09 kPa
305.59 K	1.46 kPa
310.16 K	1.92 kPa
310.26 K	1.96 kPa
310.29 K	1.9 kPa and 1.91 kPa
314.75 K	2.67 kPa
314.76 K	2.6 kPa and 2.5 kPa
314.81 K	2.61 kPa
321.34 K	4.15 kPa and 4.19 kPa
322.07 K	4.33 kPa
322.58 K	4.48 kPa
322.69 K	4.52 kPa
323.09 K	4.54 kPa
323.14 K	4.54 kPa
323.5 K	4.62 kPa
323.67 K	4.69 kPa
323.78 K	4.75 kPa
323.9 K	4.74 kPa
324.18 K	4.79 kPa
324.28 K	4.85 kPa
324.57 K	4.91 kPa
324.59 K	4.87 kPa
324.8 K	4.95 kPa
324.91 K	4.98 kPa
333.51 K	8.09 kPa
334.32 K	8.38 kPa
341.78 K	12.79 kPa
343.2 K	13.52 kPa
343.36 K	13.71 kPa
343.39 K	14.44 kPa
352.7 K	21.03 kPa
360.58 K	32.09 kPa

CCO [ethanol]
Details	vapor or sublimation pressure [kPa]
301.1 K	9.07
305.47 K	10.94
305.54 K	11.69
305.63 K	11.08
305.68 K	11.85

CCCCCCCCO [octan-1-ol]
Details	vapor or sublimation pressure [kPa]
319.82 K	0.06
324.46 K	0.09
333.93 K	0.21
343.23 K	0.38
343.39 K	0.4
348.15 K	0.54
362.32 K	1.36
390.95 K	6.14

Cc1ccccc1 [toluene]
Details	vapor or sublimation pressure [kPa]
300.89 K	4.47
305.64 K	5.17
305.68 K	5.23
324.21 K	13.4
